Laboratory results: publication PMC9147192, “Small Molecule Arranged Thermal Proximity Coaggregation (smarTPCA)—A Novel Approach to Characterize Protein–Protein Interactions in Living Cells by Similar Isothermal Dose–Responses” (International Journal of Molecular Sciences, 2022)

Key:
PDIA6 = biological target: T1, PDIA6 (Homo sapiens, UniProt Q15084); test: TPP-CCR in living HL-60 cells; format: cell-based
T1 construct: endogenous in cells; host or cells: HL-60 (ATCC CCL-240)
T1 sequence (Q15084 20-440): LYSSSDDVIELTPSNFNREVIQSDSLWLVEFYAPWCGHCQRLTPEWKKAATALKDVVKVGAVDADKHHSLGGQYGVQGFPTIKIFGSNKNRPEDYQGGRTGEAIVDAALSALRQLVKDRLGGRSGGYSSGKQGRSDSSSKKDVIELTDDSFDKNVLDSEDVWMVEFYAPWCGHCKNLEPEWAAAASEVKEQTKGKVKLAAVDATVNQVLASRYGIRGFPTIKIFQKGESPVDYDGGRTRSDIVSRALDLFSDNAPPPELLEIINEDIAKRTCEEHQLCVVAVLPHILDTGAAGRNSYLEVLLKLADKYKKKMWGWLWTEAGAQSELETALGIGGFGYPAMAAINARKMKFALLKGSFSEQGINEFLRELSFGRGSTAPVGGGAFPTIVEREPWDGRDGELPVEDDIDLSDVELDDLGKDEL

PDCD4 = biological target: T2, PDCD4 (Homo sapiens, UniProt Q53EL6); test: TPP-CCR in living HL-60 cells; format: cell-based
T2 construct: endogenous in cells; host or cells: HL-60 (ATCC CCL-240)
T2 sequence (Q53EL6 1-469): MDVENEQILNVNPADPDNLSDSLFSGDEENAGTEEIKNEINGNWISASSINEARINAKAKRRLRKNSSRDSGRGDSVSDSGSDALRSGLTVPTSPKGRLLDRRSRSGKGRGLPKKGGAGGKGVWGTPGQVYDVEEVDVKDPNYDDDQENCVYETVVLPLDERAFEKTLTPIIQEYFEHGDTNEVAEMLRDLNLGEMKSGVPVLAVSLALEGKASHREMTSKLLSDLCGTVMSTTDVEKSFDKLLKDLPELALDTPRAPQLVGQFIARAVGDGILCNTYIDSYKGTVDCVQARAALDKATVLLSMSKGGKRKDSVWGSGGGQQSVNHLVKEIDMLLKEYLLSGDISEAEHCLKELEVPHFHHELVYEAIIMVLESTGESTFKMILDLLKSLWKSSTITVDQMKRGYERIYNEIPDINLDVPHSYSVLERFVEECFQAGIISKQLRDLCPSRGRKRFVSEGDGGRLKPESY

[1] = living HL-60 cells, […] °C, TMT-MS

Cc1cnc(Nc2ccc(F)cc2Cl)nc1-c1c[nH]c(C(=O)N[C@H](CO)c2cccc(Cl)c2)c1 [ERK 11e]
Hill slope (PDIA6; TPP-CCR, living cells, PDIA6): 1.33 | Hill slope (PDIA6) (PDIA6; [1]): 1.33 | EC50 (PDIA6; living HL-60 cells, […] °C, TMT-MS, read-out: pEC50 (PDIA6) (converted)): 3.55 µM | Hill slope (PDCD4; TPP-CCR, living cells, PDCD4): 0.69 | Hill slope (PDCD4) (PDCD4; [1]): 0.69 | EC50 (PDCD4; living HL-60 cells, […] °C, TMT-MS, read-out: pEC50 (PDCD4) (converted)): 1.05 µM
